Data taken from PubChem BioAssay (NCI).
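Each compound was tested at five concentrations against cells in 96-well plates for 48 hours. The concentration for 50% growth inhibition is given as GI50. TGI: total growth inhibition.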

Experiments:
Test in all cases: DTP human tumour cell line panel, 48 h
A498 renal = system: A498 renal
HOP-92 NSCLC = system: HOP-92 NSCLC
HT29 colon = system: HT29 colon
MOLT-4 leukemia = system: MOLT-4 leukemia
NCI-H522 lung = system: NCI-H522 lung
NCI/ADR-RES ovarian = system: NCI/ADR-RES ovarian
OVCAR-3 ovarian = system: OVCAR-3 ovarian
RPMI-8226 leukemia = system: RPMI-8226 leukemia
SNB-19 CNS = system: SNB-19 CNS
SNB-75 CNS = system: SNB-75 CNS

| Structure (SMILES) | GI50 (A498 renal) [µM] | TGI (A498 renal) [µM] | GI50 (HOP-92 NSCLC) [µM] | TGI (HOP-92 NSCLC) [µM] | GI50 (HT29 colon) [µM] | TGI (HT29 colon) [µM] | GI50 (MOLT-4 leukemia) [µM] | TGI (MOLT-4 leukemia) [µM] | GI50 (NCI-H522 lung) [µM] | TGI (NCI-H522 lung) [µM] | GI50 (NCI/ADR-RES ovarian) [µM] | TGI (NCI/ADR-RES ovarian) [µM] | GI50 (OVCAR-3 ovarian) [µM] | TGI (OVCAR-3 ovarian) [µM] | GI50 (RPMI-8226 leukemia) [µM] | TGI (RPMI-8226 leukemia) [µM] | GI50 (SNB-19 CNS) [µM] | TGI (SNB-19 CNS) [µM] | GI50 (SNB-75 CNS) [µM] | TGI (SNB-75 CNS) [µM] |
| --- | --- | --- | --- | --- | --- | --- | --- | --- | --- | --- | --- | --- | --- | --- | --- | --- | --- | --- | --- | --- |
| COC(=O)c1cc(-c2ccc(OC)c(OC)c2)[nH]c1N/N=C/c1c(Cl)cccc1Cl | 0.532 | 3.8 | 0.944 | 5.06 | 0.434 | 2.3 | 0.68 | > 100 | 0.502 | 2.51 | 0.557 | 9.01 | 0.366 | 1.87 | 0.531 | > 100 | 0.673 | 6.98 | 0.379 | 2.21 |
| Cc1[nH]c(-c2cc(N)ccc2Cl)c2c1C(=O)CCCC2 | 3.22 | 9.84 | 1.93 | 63.8 | 2.7 | > 100 | 8.32 | > 100 | 1.13 | 15.2 | 4.78 | > 100 | 3.62 | 32.5 | 3.63 | 44.2 | 4.53 | > 100 | 0.183 | 5.2 |
| Cc1[nH]nc(-c2ccon2)c1N=O | – | > 100 | – | 29 | – | 39.6 | – | 6.18 | – | 48.5 | – | 38 | – | 33.7 | – | 17.1 | – | 64.8 | – | > 100 |
| CC1C=CC(OC(=O)C(C)(O)CCC(O)(C(=O)OC2CC(O)C(C(C)C)CC2(C)O)C(C)C)(C(C)C)CC1 (configuration not stated) | 0.844 | 2.03 | 0.403 | 1.86 | 0.599 | 1.56 | 0.193 | 0.861 | 0.576 | 1.36 | 0.725 | 2.22 | 0.188 | 0.409 | 0.161 | 0.711 | 1.19 | 16.2 | 0.542 | 1.79 |
| C1CSCCSCCCSCCSCCCSCCSCCCSCCSC1 | – | > 100 | – | > 100 | – | > 100 | – | > 100 | – | > 100 | – | > 100 | – | > 100 | – | > 100 | – | > 100 | – | – |
| C=CCc1cc(Nc2c3ccc(Cl)cc3nc3ccc(OC)cc23)cc(CN(CC)CC)c1O | 1.68 | 5.84 | 1.11 | 4.04 | 1.75 | 10.1 | 1.24 | 4.92 | 1.77 | 5.96 | 2.88 | 10.8 | 1.88 | 11.5 | 0.348 | 2.38 | 2.03 | 21.2 | 3.85 | 19.3 |
| COc1cc(C(=O)c2cc(C)c3[nH]c4ccc(O)cc4c3c2C)cc(OC)c1OC | < 0.01 | < 0.0189 | 0.944 | > 100 | 0.0276 | – | 0.0424 | > 100 | < 0.01 | 2.21 | < 0.01 | – | < 0.01 | 2.17 | 0.0228 | > 100 | 0.0289 | > 47.3 | < 0.01 | 8.71 |
